Measured values: patent US20050080120A1, “4-[3,5-bis-(2-hydroxy-phenyl)-[1,2,4]triazol-1-yl]-benzoic acid derivatives for treating an excess of metal in the body” (priority 2001, published 2005)

melting point: 223 to 226 °C
SMILES: O=C(O)c1ccc(-n2nc(-c3cccc(O)c3O)nc2-c2ccccc2O)cc1 [Example 1, 4-[3-(2,3-Dihydroxy-phenyl)-5-(2-hydroxy-phenyl)-[1,2,4]triazol-1-yl]benzoic Acid]
